Reference: US9994915B2, “miR-211 expression and related pathways in human melanoma” (Sanford-Burnham Medical Research Institute, priority 2010, dated 2018)

Assays:
Assay type in all cases: cell-based, human
IGFBP5 mRNA = assay: Next Gen sequencing of IGFBP5 mRNA in WM1552C cells
Procedure: To extend the findings of the MITF knock-down study and to further establish IGFBP5 as a miR-211 target, the effect of miR-211 expression on IGFBP5 mRNA was determined. WM1552C cells were transfected with either an empty vector or the vector encoding and expressing miR-211. Additionally, untransfected WM1552C cells were treated with 5-Aza-2′deoxycytidine (“5-Aza”) to investigate whether miR-211 down-regulates IGFBP5 mRNA production through a genomic methylation mechanism.

A375 cells = assay: cell counts after DFO (simulated hypoxia), A375 and A375/211
Procedure: (§1) A375 cells and WM1552C, both wild-type and miR-211-expressing, were subjected to treatment with 0, 250 nM, or 400 nM defroxamine (DFO) to simulate hypoxic conditions in order to determine whether miR-211 expression is capable of being regulated by changes in O2 concentrations. Cell counts were performed for each treatment group.
(§2) Relative to untreated cells, survival was about 45% following 250 nM DFO and about 25% following 400 nM DFO. The presence of miR-211 in these cells caused this effect to be greatly exacerbated, reducing survival to about 13% at 250 nM DFO and about 8% at 400 nM DFO. Similarly, for WM1552C cells, survival was about 77% at 250 nM DFO and about 55% at 400 nM DFO, compared to untreated cells (FIG. 21).

miR-211 expression [1] = assay: qPCR of miR-211 expression under simulated hypoxia in SKMEL-28 cells; settings: DFO-simulated hypoxia
Procedure: (§3) The effect of hypoxia on miR-211 expression was investigated under simulated (DFO) and actual hypoxic conditions in both melanocytes and SKMEL-28 cells. miRNA-211 expression was determined by qPCR.

WM1552C cells = assay: cell counts after DFO (simulated hypoxia), WM1552C and WM1552C/211
Procedure: as §1, §2

SKMEL-28 cells = assay: cell counts after DFO with or without miR-211 inhibitor, SKMEL-28
Procedure: SKMEL-28 cells, were subjected to the same DFO or hypoxic conditions as described above either in the presence or absence of an miR-211 inhibitor (has-miR-211 Anti-miR™ miRNA Inhibitor, Ambion, catalog numberAM17000, ID AM10168). […] The survival of SKMEL-28 cells was about 64% at 250 nM DFO and about 50% 400 nM DFO, compared to untreated cells. […] The survival of the SKMEL-28 cells treated with the miR-211 inhibitor was about 85% at 250 nM DFO and about 70% at 400 nM DFO.

miR-211 expression [2] = assay: qPCR of miR-211 expression under simulated hypoxia in melanocytes; settings: DFO-simulated hypoxia
Procedure: as §3

SMILES | IGFBP5 mRNA expression (IGFBP5 mRNA) | survival relative to untreated cells (A375 cells; A375/211 (miR-211-expressing) cells, 250 nM DFO) | survival relative to untreated cells (A375 cells; A375/211 (miR-211-expressing) cells, 400 nM DFO) | survival relative to untreated cells (A375 cells; A375 cells, 250 nM DFO) | survival relative to untreated cells (A375 cells; A375 cells, 400 nM DFO) | cell death (A375 cells; miR-211-expressing melanoma cells treated with hypoxia mimetic agent) | miR-211 expression (miR-211 expression [1]) | survival compared to untreated cells (WM1552C cells; WM1552C cells, 250 nM DFO) | survival compared to untreated cells (WM1552C cells; WM1552C cells, 400 nM DFO) | survival compared to untreated cells (WM1552C cells; WM1552C/211 (miR-211-expressing) cells, 250 nM DFO) | survival compared to untreated cells (WM1552C cells; WM1552C/211 (miR-211-expressing) cells, 400 nM DFO) | survival compared to untreated cells (SKMEL-28 cells; 250 nM DFO) | survival compared to untreated cells (SKMEL-28 cells; 400 nM DFO) | miR-211 expression (miR-211 expression [2])
Nc1ncn([C@H]2C[C@H](O)[C@@H](CO)O2)c(=O)n1 [5-Aza, 5-Aza-2′deoxycytidine, reference compound] | no effect |  |  |  |  |  |  |  |  |  |  |  |  | 
CC(=O)N(O)CCCCCNC(=O)CCC(=O)N(O)CCCCCNC(=O)CCC(=O)N(O)CCCCCN [DFO, defroxamine] |  | about 13% | about 8% | about 45% | about 25% | increased cell death | neither simulated nor actual hypoxic conditions had a significant effect | about 77% | about 55% | about 40% | about 21% | about 64% | about 50% | increases in a dose-dependent manner
